Reference: ChEMBL document CHEMBL4480460, “Concise Modular Synthesis of Thalassotalic Acids A-C” (J Nat Prod, 2019)

Target: T1, Tyrosinase (Agaricus bisporus, UniProt O42713)
T1 sequence (O42713 whole entry): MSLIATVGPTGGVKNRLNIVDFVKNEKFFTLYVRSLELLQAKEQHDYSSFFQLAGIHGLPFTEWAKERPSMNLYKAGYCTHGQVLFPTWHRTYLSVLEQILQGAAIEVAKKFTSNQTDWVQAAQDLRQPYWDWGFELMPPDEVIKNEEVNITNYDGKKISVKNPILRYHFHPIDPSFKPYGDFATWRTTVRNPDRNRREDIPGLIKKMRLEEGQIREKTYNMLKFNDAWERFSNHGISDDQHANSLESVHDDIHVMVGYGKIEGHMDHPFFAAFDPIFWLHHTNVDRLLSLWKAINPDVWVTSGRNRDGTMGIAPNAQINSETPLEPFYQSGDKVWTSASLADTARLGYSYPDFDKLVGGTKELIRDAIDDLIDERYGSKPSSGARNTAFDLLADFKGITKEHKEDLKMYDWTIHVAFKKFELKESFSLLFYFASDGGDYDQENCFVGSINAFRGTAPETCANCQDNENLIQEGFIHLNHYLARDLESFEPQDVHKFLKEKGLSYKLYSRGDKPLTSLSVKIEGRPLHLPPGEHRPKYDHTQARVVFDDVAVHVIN
Description: Inhibition of mushroom tyrosinase using L-tyrosine as substrate measured after 30 mins

First: CC(=O)N/C(=C\c1ccc(O)cc1)C(=O)O
Second: O=C(O)/C(=C/c1ccc(O)cc1)NC(=O)c1ccccc1
The IC50 of the first is 2.8-fold lower: 65 µM for the first, 180 µM for the second. The first is the more potent here.

Work on `CCCCCCCCC(=O)N/C(=C\c1ccc(O)cc1)C(=O)O` yielded an IC50 of 250 µM.
